Laboratory results reported in ChEMBL document CHEMBL3885861, “Open TG-GATES”.

Organism: Rattus norvegicus
Experiment: Open TG-GATES - Regimen: Daily Repeat
Type: toxicity, organism-based, Sprague-Dawley
Set-up: regimen Daily Repeat, gender Male, age 6 weeks
Settings: in vivo, po, route gavage; for APTT / Bas / Eos / Fbg / Hb / Ht / Lym / MCH / MCHC / MCV / Mono / Neu / PT / Plat / RBC / Ret / WBC: tissue Blood; for KIDNEY_L / KIDNEY_R / KIDNEY_TOTAL: tissue Kidney; for LIVER: tissue Liver; for A/G / ALP / ALT / AST / BUN / CRE / Ca / Cl / DBIL / GLC / IP / K / LDH / Na / PL / RALB / TBIL / TC / TG / TP / gamma-GTP: tissue Plasma
[1] = 50 mg/kg, 72 h, dose level Middle, time 3 day
[2] = 50 mg/kg, […], dose level Middle, time 7 day
[3] = 50 mg/kg, […], dose level Middle, time 14 day
[4] = 50 mg/kg, […], dose level Middle, time 28 day
[5] = 150 mg/kg, 72 h, dose level High, time 3 day
[6] = 150 mg/kg, […], dose level High, time 7 day
[7] = 150 mg/kg, […], dose level High, time 14 day
[8] = 150 mg/kg, […], dose level High, time 28 day

CC(C)C(=O)Nc1ccc([N+](=O)[O-])c(C(F)(F)F)c1 [FLUTAMIDE]
TERMINAL_BW [1]: 215.7 g
APTT [1]: 18.3 s
Bas [1]: 0%
Eos [1]: 1.2%
Fbg [1]: 217 mg/dL
Hb [1]: 14.3 g/dL
Ht [1]: 43.4%
Lym [1]: 78%
MCH [1]: 20.9 pg
MCHC [1]: 32.9%
MCV [1]: 63.5 fL
Mono [1]: 2.6%
Neu [1]: 17.4%
PT [1]: 12.3 s
Plat [1]: 115.2 x10_4/uL
RBC [1]: 685 x10_4/ul
Ret [1]: 4.1%
WBC [1]: 77.6 x10_2/uL
KIDNEY_L [1]: 0.9 g
KIDNEY_R [1]: 1 g
KIDNEY_TOTAL [1]: 1.9 g
LIVER [1]: 11.1 g
A/G [1]: 1.7
ALP [1]: 1001 IU/L
ALT [1]: 38 IU/L
AST [1]: 66.2 IU/L
BUN [1]: 14.6 mg/dL
CRE [1]: 0.4 mg/dL
Ca [1]: 10.7 mg/dL
Cl [1]: 105 meq/L
DBIL [1]: 0.098 mg/dL
GLC [1]: 210.8 mg/dL
IP [1]: 6.9 mg/dL
K [1]: 3.6 meq/L
LDH [1]: 175.8 IU/L
Na [1]: 142 meq/L
PL [1]: 162.4 mg/dL
RALB [1]: 3.6 g/dL
TBIL [1]: 0.2 mg/dL
TC [1]: 97.8 mg/dL
TG [1]: 66.6 mg/dL
TP [1]: 5.7 g/dL
gamma-GTP [1]: 1 IU/L
TERMINAL_BW [2]: 244.8 g
TERMINAL_BW [3]: 289.8 g
TERMINAL_BW [4]: 352.3 g
APTT [2]: 16.9 s
Bas [2]: 0%
Eos [2]: 1%
Fbg [2]: 221.4 mg/dL
Hb [2]: 13.6 g/dL
Ht [2]: 40.5%
Lym [2]: 82.2%
MCH [2]: 20.6 pg
MCHC [2]: 33.7%
MCV [2]: 61.2 fL
Mono [2]: 2.6%
Neu [2]: 13.8%
PT [2]: 12.7 s
Plat [2]: 126 x10_4/uL
RBC [2]: 661.8 x10_4/ul
Ret [2]: 4.8%
WBC [2]: 115.5 x10_2/uL
APTT [3]: 20.1 s
Bas [3]: 0%
Eos [3]: 1%
Fbg [3]: 216.8 mg/dL
Hb [3]: 14.2 g/dL
Ht [3]: 41.8%
Lym [3]: 82%
MCH [3]: 20.7 pg
MCHC [3]: 34.1%
MCV [3]: 60.9 fL
Mono [3]: 1.8%
Neu [3]: 14.4%
PT [3]: 12.6 s
Plat [3]: 116.7 x10_4/uL
RBC [3]: 687.8 x10_4/ul
Ret [3]: 4%
WBC [3]: 138.1 x10_2/uL
APTT [4]: 19.2 s
Bas [4]: 0%
Eos [4]: 1%
Fbg [4]: 225 mg/dL
Hb [4]: 15 g/dL
Ht [4]: 42.3%
Lym [4]: 83.8%
MCH [4]: 20.2 pg
MCHC [4]: 35.6%
MCV [4]: 56.9 fL
Mono [4]: 2%
Neu [4]: 12.2%
PT [4]: 12.5 s
Plat [4]: 107.9 x10_4/uL
RBC [4]: 743.2 x10_4/ul
Ret [4]: 2.1%
WBC [4]: 114.3 x10_2/uL
KIDNEY_L [2]: 1 g
KIDNEY_R [2]: 1 g
KIDNEY_TOTAL [2]: 2 g
KIDNEY_L [3]: 1.2 g
KIDNEY_R [3]: 1.1 g
KIDNEY_TOTAL [3]: 2.3 g
KIDNEY_L [4]: 1.3 g
KIDNEY_R [4]: 1.3 g
KIDNEY_TOTAL [4]: 2.5 g
LIVER [2]: 12.8 g
LIVER [3]: 14.8 g
LIVER [4]: 16.8 g
A/G [2]: 1.7
ALP [2]: 753 IU/L
ALT [2]: 36.4 IU/L
AST [2]: 54.4 IU/L
BUN [2]: 15.6 mg/dL
CRE [2]: 0.4 mg/dL
Ca [2]: 10.9 mg/dL
Cl [2]: 103.8 meq/L
DBIL [2]: 0.09 mg/dL
GLC [2]: 215.2 mg/dL
IP [2]: 6.8 mg/dL
K [2]: 3.7 meq/L
LDH [2]: 169.2 IU/L
Na [2]: 140.6 meq/L
PL [2]: 156.2 mg/dL
RALB [2]: 3.7 g/dL
TBIL [2]: 0.1 mg/dL
TC [2]: 88.4 mg/dL
TG [2]: 67 mg/dL
TP [2]: 6 g/dL
gamma-GTP [2]: 0.2 IU/L
A/G [3]: 1.5
ALP [3]: 685.8 IU/L
ALT [3]: 33.2 IU/L
AST [3]: 59.2 IU/L
BUN [3]: 14.4 mg/dL
CRE [3]: 0.5 mg/dL
Ca [3]: 10.6 mg/dL
Cl [3]: 103.8 meq/L
DBIL [3]: 0.086 mg/dL
GLC [3]: 192 mg/dL
IP [3]: 6.2 mg/dL
K [3]: 3.8 meq/L
LDH [3]: 148 IU/L
Na [3]: 141.8 meq/L
PL [3]: 132 mg/dL
RALB [3]: 3.5 g/dL
TBIL [3]: 0.1 mg/dL
TC [3]: 70.6 mg/dL
TG [3]: 58.6 mg/dL
TP [3]: 5.9 g/dL
gamma-GTP [3]: 1 IU/L
A/G [4]: 1.5
ALP [4]: 449.8 IU/L
ALT [4]: 30.6 IU/L
AST [4]: 48.6 IU/L
BUN [4]: 17.4 mg/dL
CRE [4]: 0.5 mg/dL
Ca [4]: 10.5 mg/dL
Cl [4]: 103.8 meq/L
DBIL [4]: 0.078 mg/dL
GLC [4]: 227.2 mg/dL
IP [4]: 6.9 mg/dL
K [4]: 3.5 meq/L
LDH [4]: 124.2 IU/L
Na [4]: 141.8 meq/L
PL [4]: 167.4 mg/dL
RALB [4]: 3.8 g/dL
TBIL [4]: 0.1 mg/dL
TC [4]: 93.2 mg/dL
TG [4]: 54.2 mg/dL
TP [4]: 6.3 g/dL
gamma-GTP [4]: 1.6 IU/L
TERMINAL_BW [5]: 205.8 g
APTT [5]: 17.2 s
Bas [5]: 0%
Eos [5]: 0.8%
Fbg [5]: 219 mg/dL
Hb [5]: 14.3 g/dL
Ht [5]: 43.1%
Lym [5]: 87.4%
MCH [5]: 21.2 pg
MCHC [5]: 33.3%
MCV [5]: 63.6 fL
Mono [5]: 2.4%
Neu [5]: 8.6%
PT [5]: 12.6 s
Plat [5]: 125 x10_4/uL
RBC [5]: 677.2 x10_4/ul
Ret [5]: 3.5%
WBC [5]: 86 x10_2/uL
KIDNEY_L [5]: 0.9 g
KIDNEY_R [5]: 0.9 g
KIDNEY_TOTAL [5]: 1.8 g
LIVER [5]: 12.3 g
A/G [5]: 1.7
ALP [5]: 1049 IU/L
ALT [5]: 35.4 IU/L
AST [5]: 54.2 IU/L
BUN [5]: 13.2 mg/dL
CRE [5]: 0.5 mg/dL
Ca [5]: 10.5 mg/dL
Cl [5]: 103.4 meq/L
DBIL [5]: 0.1 mg/dL
GLC [5]: 203.2 mg/dL
IP [5]: 7.7 mg/dL
K [5]: 3.4 meq/L
LDH [5]: 196.2 IU/L
Na [5]: 141 meq/L
PL [5]: 185.2 mg/dL
RALB [5]: 3.6 g/dL
TBIL [5]: 0.2 mg/dL
TC [5]: 113.2 mg/dL
TG [5]: 77.8 mg/dL
TP [5]: 5.7 g/dL
gamma-GTP [5]: 1.4 IU/L
TERMINAL_BW [6]: 233.5 g
TERMINAL_BW [7]: 269.7 g
TERMINAL_BW [8]: 325.6 g
APTT [6]: 18.2 s
Bas [6]: 0%
Eos [6]: 1%
Fbg [6]: 224.6 mg/dL
Hb [6]: 13.5 g/dL
Ht [6]: 40.3%
Lym [6]: 81%
MCH [6]: 20.7 pg
MCHC [6]: 33.4%
MCV [6]: 62 fL
Mono [6]: 2.8%
Neu [6]: 14.6%
PT [6]: 12.6 s
Plat [6]: 123.7 x10_4/uL
RBC [6]: 651 x10_4/ul
Ret [6]: 4.3%
WBC [6]: 111.1 x10_2/uL
APTT [7]: 18.9 s
Bas [7]: 0%
Eos [7]: 1%
Fbg [7]: 228.2 mg/dL
Hb [7]: 13.9 g/dL
Ht [7]: 41.5%
Lym [7]: 79.4%
MCH [7]: 19.9 pg
MCHC [7]: 33.6%
MCV [7]: 59.3 fL
Mono [7]: 3.2%
Neu [7]: 15.2%
PT [7]: 12.9 s
Plat [7]: 115.7 x10_4/uL
RBC [7]: 699.6 x10_4/ul
Ret [7]: 4.5%
WBC [7]: 115.1 x10_2/uL
APTT [8]: 18.2 s
Bas [8]: 0%
Eos [8]: 1.2%
Fbg [8]: 237 mg/dL
Hb [8]: 13.7 g/dL
Ht [8]: 39.9%
Lym [8]: 81.6%
MCH [8]: 19.5 pg
MCHC [8]: 34.3%
MCV [8]: 56.9 fL
Mono [8]: 2.6%
Neu [8]: 13.6%
PT [8]: 12.8 s
Plat [8]: 98 x10_4/uL
RBC [8]: 700.6 x10_4/ul
Ret [8]: 3.7%
WBC [8]: 112 x10_2/uL
KIDNEY_L [6]: 1 g
KIDNEY_R [6]: 1 g
KIDNEY_TOTAL [6]: 2 g
KIDNEY_L [7]: 1.1 g
KIDNEY_R [7]: 1.2 g
KIDNEY_TOTAL [7]: 2.2 g
KIDNEY_L [8]: 1.1 g
KIDNEY_R [8]: 1.2 g
KIDNEY_TOTAL [8]: 2.3 g
LIVER [6]: 15.7 g
LIVER [7]: 16.8 g
LIVER [8]: 20 g
A/G [6]: 1.5
ALP [6]: 797.6 IU/L
ALT [6]: 32.8 IU/L
AST [6]: 46 IU/L
BUN [6]: 16 mg/dL
CRE [6]: 0.4 mg/dL
Ca [6]: 10.7 mg/dL
Cl [6]: 102.8 meq/L
DBIL [6]: 0.086 mg/dL
GLC [6]: 199.8 mg/dL
IP [6]: 7.1 mg/dL
K [6]: 3.5 meq/L
LDH [6]: 177.8 IU/L
Na [6]: 140.6 meq/L
PL [6]: 186.8 mg/dL
RALB [6]: 3.7 g/dL
TBIL [6]: 0.2 mg/dL
TC [6]: 110.6 mg/dL
TG [6]: 42.6 mg/dL
TP [6]: 6.2 g/dL
gamma-GTP [6]: 2 IU/L
A/G [7]: 1.7
ALP [7]: 726.8 IU/L
ALT [7]: 31 IU/L
AST [7]: 47.4 IU/L
BUN [7]: 15 mg/dL
CRE [7]: 0.5 mg/dL
Ca [7]: 10.5 mg/dL
Cl [7]: 103.4 meq/L
DBIL [7]: 0.096 mg/dL
GLC [7]: 181.2 mg/dL
IP [7]: 6.3 mg/dL
K [7]: 3.8 meq/L
LDH [7]: 173.8 IU/L
Na [7]: 140.4 meq/L
PL [7]: 168.8 mg/dL
RALB [7]: 3.8 g/dL
TBIL [7]: 0.2 mg/dL
TC [7]: 104.4 mg/dL
TG [7]: 32.2 mg/dL
TP [7]: 6 g/dL
gamma-GTP [7]: 2.8 IU/L
A/G [8]: 1.8
ALP [8]: 642.2 IU/L
ALT [8]: 29.2 IU/L
AST [8]: 45.2 IU/L
BUN [8]: 16.4 mg/dL
CRE [8]: 0.5 mg/dL
Ca [8]: 10.7 mg/dL
Cl [8]: 104 meq/L
DBIL [8]: 0.1 mg/dL
GLC [8]: 204.4 mg/dL
IP [8]: 7.6 mg/dL
K [8]: 3.7 meq/L
LDH [8]: 110.8 IU/L
Na [8]: 141.8 meq/L
PL [8]: 167.4 mg/dL
RALB [8]: 4.3 g/dL
TBIL [8]: 0.2 mg/dL
TC [8]: 97.4 mg/dL
TG [8]: 26.6 mg/dL
TP [8]: 6.8 g/dL
gamma-GTP [8]: 1.8 IU/L
